The target of this assay is T1, CDK4/Cyclin D1 (Homo sapiens, UniProt P11802).
T1 construct: made in house; host or cells: SF21 (Spodoptera frugiperda) insect cells, baculovirus co-infection, vector pVL1393
The assay can be described thus: in vitro kinase assay (Scintillation Proximity Assay), incorporation of [γ-33-P]-ATP into GST-Retinoblastoma. Conditions: CDK4/Cyclin D1 partially-purified enzyme, GST-Rb substrate, 0.2 μM ATP, room temperature 60 minutes; read-out: CDK4 inhibitory activity IC50. It is filed as biochemical. The procedure: The compounds were tested in an in vitro kinase assay in 96 well format using Scintillation Proximity Assay (SPA-obtained from Amersham) for measuring incorporation of [γ-33-P]-Adenosine Triphosphate into a test substrate (GST-Retinoblastoma). In each well was placed the compound to be tested (diluted in DMSO and water to correct concentrations) and in control wells either p16 as an inhibitor control or DMSO as a positive control.
Approximately 0.5 μl of CDK4/Cyclin D1 partially-purified enzyme (amount dependent on enzyme activity) diluted in 25 μl incubation buffer was added to each well then 20 μl of GST-Rb/ATP/ATP33 mixture (containing 0.5 μg GST-Rb and 0.2 μM ATP and 0.14 μCi [γ-33-P]-Adenosine Triphosphate), and the resulting mixture shaken gently, then incubated at room temperature for 60 minutes. To each well was then added 150 μL stop solution containing (0.8 mg/well of Protein A-PVT SPA bead (Amersham)), 20 pM/well of Anti-Glutathione Transferase, Rabbit IgG (obtained from Molecular Probes), 61 mM EDTA and 50 mM HEPES pH 7.5 containing 0.05% sodium azide.
The plates were sealed with Topseal-S plate sealers, left for two hours then spun at 2500 rpm, 1124×g., for 5 minutes. The plates were read on a Topcount for 30 seconds per well. […]

T1 sequence (P11802 whole entry): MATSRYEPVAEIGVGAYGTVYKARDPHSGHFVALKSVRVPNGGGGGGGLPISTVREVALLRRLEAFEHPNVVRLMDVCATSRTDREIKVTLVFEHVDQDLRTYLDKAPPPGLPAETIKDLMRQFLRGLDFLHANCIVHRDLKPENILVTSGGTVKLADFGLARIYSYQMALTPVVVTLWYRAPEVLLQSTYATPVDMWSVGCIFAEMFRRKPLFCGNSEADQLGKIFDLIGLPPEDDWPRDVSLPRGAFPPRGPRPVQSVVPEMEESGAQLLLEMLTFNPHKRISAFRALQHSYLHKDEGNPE
T1 sequence (P24385 whole entry partner): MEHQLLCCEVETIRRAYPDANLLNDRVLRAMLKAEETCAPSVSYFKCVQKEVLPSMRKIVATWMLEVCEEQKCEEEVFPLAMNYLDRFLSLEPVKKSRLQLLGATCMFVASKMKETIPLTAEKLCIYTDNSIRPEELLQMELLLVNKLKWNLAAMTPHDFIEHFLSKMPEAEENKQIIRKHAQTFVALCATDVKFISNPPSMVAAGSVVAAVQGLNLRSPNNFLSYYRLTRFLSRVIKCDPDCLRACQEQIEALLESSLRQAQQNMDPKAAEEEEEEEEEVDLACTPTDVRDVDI

For the compound `Cc1ccc(C)c(Oc2cc(Nc3ccc(OCC(O)CN(C)C)cc3)ncn2)c1` (stereo not shown) [Example 6], the IC50 is 1.2 µM.

For orientation: IC50 means the concentration needed to halve the response being measured.

Source of the values: patent publication US6670368B1, “Pyrimidine compounds with pharmaceutical activity” (AstraZeneca AB, priority 1999, dated 2003).
